From patent US20150290306A1, “COMPOSITIONS AND METHODS FOR DIAGNOSIS AND TREATMENT OF MALIGNANT GLIOMAS” (priority 2012, published 2015)

Key:
PBMCs = experiment: PBMC culture with candidate peptides for 14 days, IFN-γ and IL-5 in supernatant by ELISA; type: cell-based, human; conditions: for IFN-γ/IL-5 ratio (geometric mean): peptide 10 μg/mL
From the text: Measurement of antigen-specific T cell responses in the peripheral blood in humans differs depending on whether responses are high affinity interactions with foreign (viral) epitopes or lower affinity interactions involving recognition of self-antigens. […] Given that T cell responses directed against MAGE and IL-13Rα2 antigens also involve T cells with low affinity to these self-antigens, antigen-specific responses were quantified based on cytokine secretion, as recently described in a phase I study of patients with MS (Viglietta V, et al: Neurology 2008, 71(12):917-924). Cytokine production was quantified by ELISA, defining a positive T cell response for each patient as the amounts of IFN-γ or IL-5 that were >50 pg/mL and two standard deviations above the mean cytokine levels secreted after stimulation of cells from that patient with negative control MBP peptide.
Twenty-five mL of blood from patients or healthy subjects was obtained under an IRB-approved protocol. All samples of blood from patients were taken at the time of surgery. […] All tumor-bearing patients received similar doses of steroids and anti-epileptic medications at the time of tumor debulking surgery prior to obtaining peripheral blood for these studies. T cell responses in patients with meningiomas controlled for influences of steroids on antigen responsiveness and cytokine balance. Tumor tissue was independently confirmed in all cases by formal pathological analysis. PBMCs were purified from heparinized blood by density gradient centrifugation using Ficoll-Hypaque (GE Healthcare Biosciences), and cells were then washed with PBS and viable cells quantified by trypan-blue staining.
Freshly isolated PBMCs were plated at 2×10^5 cells/well in 200 μl of serum-free X-VIVO15 (X15) media (Lonza) in 96-well round-bottom cell culture plates. Candidate peptides, in addition to a negative control peptide derived from MBP were added at a concentration of 10 μg/mL and anti-CD3 mAb was added at a concentration of 1 μg/mL. Six T cell cultures were established for each condition in each subject, and 100 IU/ml of IL-2 was added on the following day. Plates were incubated at 37° C. and 5% CO2 for 14 days, with media changed as needed, and the supernatant was harvested to evaluate T cell responses (cytokines) induced by each condition using ELISA. In a limited number (n=3) of patients, cytokine production was assessed after both 7 and 14 days. […] An IFN-γ ELISPOT assay was performed as previously described (Lv H, Havari E, et al: J Clin Invest, 121(4):1561-1573).
To detect T helper cell responses directed against the candidate peptides, IFN-γ and IL-5 were measured by ELISA using commercially available kits supplied by BD bioscience. IFN-γ was used as a prototypic Th1 cytokine and IL-5 was chosen as a prototypic cytokine released by Th2 cells because unlike IL-4 there would be no potential consumption by antigen-specific T cells in the culture conditions (Kourilsky P, Truffa-Bachi P: Trends Immunol 2001, 22(9):502-509).

DRB1*04 and *15 alleles = conditions: literature, Mycko et al. 2004; cited from earlier work

ENPVVHFFKNIVTPR [MBP85-99, reference compound]
mean cut-off for a positive cytokine response based on cytokine induced by control MBP peptide, IFN-γ (PBMCs; GBM patients): 123 pg/mL | mean cut-off for a positive cytokine response based on cytokine induced by control MBP peptide, IL-5 (PBMCs; GBM patients): 312 pg/mL | mean cut-off for a positive cytokine response based on cytokine induced by control MBP peptide, IFN-γ (PBMCs; healthy subjects): 895 pg/mL | HLA class II alleles shown to bind (experimental data) (DRB1*04 and *15 alleles): bind to both the DRB1*04 and *15 alleles

WQYFFPVIFSKASSSLQL [MAGE-A3143-160]
positive wells among 6 primary T cell responses (IFN-γ or IL-5 ELISA) (PBMCs; Healthy Subject 1): +++ (+++/++++ cell=3-4 positive wells) | positive wells among 6 primary T cell responses (IFN-γ or IL-5 ELISA) (PBMCs; Healthy Subject 2): +++ (+++/++++ cell=3-4 positive wells) | positive wells among 6 primary T cell responses (IFN-γ or IL-5 ELISA) (PBMCs; Healthy Subject 3): + (+/++ cell=1-2 positive wells) | positive wells among 6 primary T cell responses (IFN-γ or IL-5 ELISA) (PBMCs; Healthy Subject 4): +++++ (+++++/++++++ cell=5-6 positive wells) | positive wells among 6 primary T cell responses (IFN-γ or IL-5 ELISA) (PBMCs; Healthy Subject 5): ++ (+/++ cell=1-2 positive wells) | positive wells among 6 primary T cell responses (IFN-γ or IL-5 ELISA) (PBMCs; Healthy Subject 6): + (+/++ cell=1-2 positive wells) | positive wells among 6 primary T cell responses (IFN-γ or IL-5 ELISA) (PBMCs; Meningioma 4): + (+/++ cell=1-2 positive wells) | positive wells among 6 primary T cell responses (IFN-γ or IL-5 ELISA) (PBMCs; Meningioma 6): + (+/++ cell=1-2 positive wells) | positive wells among 6 primary T cell responses (IFN-γ or IL-5 ELISA) (PBMCs; Meningioma 7): + (+/++ cell=1-2 positive wells) | IFN-γ/IL-5 ratio, recurrent GBM patients compared to primary GBM patients (PBMCs; P<0.05): significantly lower | positive wells among 6 primary T cell responses (IFN-γ or IL-5 ELISA) (PBMCs; Primary GBM 1): ++++ (+++/++++ cell=3-4 positive wells) | positive wells among 6 primary T cell responses (IFN-γ or IL-5 ELISA) (PBMCs; Primary GBM 2): +++ (+++/++++ cell=3-4 positive wells) | positive wells among 6 primary T cell responses (IFN-γ or IL-5 ELISA) (PBMCs; Primary GBM 3): + (+/++ cell=1-2 positive wells) | positive wells among 6 primary T cell responses (IFN-γ or IL-5 ELISA) (PBMCs; Primary GBM 4): + (+/++ cell=1-2 positive wells) | positive wells among 6 primary T cell responses (IFN-γ or IL-5 ELISA) (PBMCs; Primary GBM 5): + (+/++ cell=1-2 positive wells) | positive wells among 6 primary T cell responses (IFN-γ or IL-5 ELISA) (PBMCs; Primary GBM 6): + (+/++ cell=1-2 positive wells) | positive wells among 6 primary T cell responses (IFN-γ or IL-5 ELISA) (PBMCs; Primary GBM 7): ++ (+/++ cell=1-2 positive wells) | positive wells among 6 primary T cell responses (IFN-γ or IL-5 ELISA) (PBMCs; Primary GBM 8): +++++ (+++++/++++++ cell=5-6 positive wells) | positive wells among 6 primary T cell responses (IFN-γ or IL-5 ELISA) (PBMCs; Recurrent GBM 1): + (+/++ cell=1-2 positive wells) | positive wells among 6 primary T cell responses (IFN-γ or IL-5 ELISA) (PBMCs; Recurrent GBM 3): + (+/++ cell=1-2 positive wells) | positive wells among 6 primary T cell responses (IFN-γ or IL-5 ELISA) (PBMCs; Recurrent GBM 4): + (+/++ cell=1-2 positive wells) | IFN-γ/IL-5 ratio (geometric mean) (PBMCs; healthy subjects): 4.3 | IFN-γ/IL-5 ratio (geometric mean) (PBMCs; patients with primary GBMs): 0.3 | IFN-γ/IL-5 ratio (geometric mean) (PBMCs; patients with recurrent GBMs): 0.4
